Reference: patent publication US20260356819A1, “OXOISOINDOLINYL-SUBSTITUTED […] DERIVATIVE AND USE THEREOF” (GLUETACS THERAPEUTICS (SHANGHAI) CO., LTD., priority 2023, published 2026)

Legend:
Format in all cases: cell-based
Conditions in all cases: compounds at 50 nM and 500 nM
IKZF1 = target: T1, IKZF1 (Homo sapiens, UniProt Q13422+Q96SW2); assay: Western blot degradation of IKZF1 in hPBMCs (24 h)
T1 construct: The supernatant was aspirated as the extracted total cell protein; endogenous in cells; host or cells: human peripheral blood mononuclear cells (hPBMCs)
Procedure, shortened: (§1)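 Thawed human PBMCs, 1×10^6 cells/mL; cpd 50 nM or 500 nM, 24 h; RIPA lysis, BCA, SDS-PAGE, NC transfer, immunoblot. Readout: grayscale/internal control → % remaining; degradation = 1 − remaining.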

GSPT1 = target: T2, GSPT1 (Homo sapiens, UniProt P15170+Q96SW2); assay: Western blot degradation of GSPT1 in hPBMCs (24 h)
T2 construct: The supernatant was aspirated as the extracted total cell protein; endogenous in cells; host or cells: human peripheral blood mononuclear cells (hPBMCs)
Procedure, shortened: as §1

CK1α = target: T3, CK1α (Homo sapiens, UniProt P48729+Q96SW2); assay: Western blot degradation of CK1α in hPBMCs (24 h)
T3 construct: The supernatant was aspirated as the extracted total cell protein; endogenous in cells; host or cells: human peripheral blood mononuclear cells (hPBMCs)
Procedure, shortened: as §1

IKZF3 = target: T4, IKZF3 (Homo sapiens, UniProt Q96SW2+Q9UKT9); assay: Western blot degradation of IKZF3 in hPBMCs (24 h)
T4 construct: The supernatant was aspirated as the extracted total cell protein; endogenous in cells; host or cells: human peripheral blood mononuclear cells (hPBMCs)
Procedure, shortened: as §1

IKZF2 = target: T5, IKZF2 (Homo sapiens, UniProt Q96SW2+Q9UKS7); assay: Western blot degradation of IKZF2 in hPBMCs (24 h)
T5 construct: The supernatant was aspirated as the extracted total cell protein; endogenous in cells; host or cells: human peripheral blood mononuclear cells (hPBMCs)
Procedure, shortened: as §1

WEE1 = target: T6, WEE1 (Homo sapiens, UniProt P30291+Q96SW2); assay: Western blot degradation of WEE1 in hPBMCs (24 h)
T6 construct: The supernatant was aspirated as the extracted total cell protein; endogenous in cells; host or cells: human peripheral blood mononuclear cells (hPBMCs)
Procedure, shortened: as §1

T3 sequence (P48729 whole entry): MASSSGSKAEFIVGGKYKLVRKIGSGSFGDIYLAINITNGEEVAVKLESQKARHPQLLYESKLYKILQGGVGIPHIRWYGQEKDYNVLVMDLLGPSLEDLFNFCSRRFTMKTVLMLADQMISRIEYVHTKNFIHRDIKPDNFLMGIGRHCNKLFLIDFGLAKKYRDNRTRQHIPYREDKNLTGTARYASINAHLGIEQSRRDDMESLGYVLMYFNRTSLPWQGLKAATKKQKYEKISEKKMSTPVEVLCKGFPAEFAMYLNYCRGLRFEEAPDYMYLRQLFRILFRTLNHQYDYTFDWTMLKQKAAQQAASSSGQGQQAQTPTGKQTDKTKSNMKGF
T3 sequence (Q96SW2 whole entry): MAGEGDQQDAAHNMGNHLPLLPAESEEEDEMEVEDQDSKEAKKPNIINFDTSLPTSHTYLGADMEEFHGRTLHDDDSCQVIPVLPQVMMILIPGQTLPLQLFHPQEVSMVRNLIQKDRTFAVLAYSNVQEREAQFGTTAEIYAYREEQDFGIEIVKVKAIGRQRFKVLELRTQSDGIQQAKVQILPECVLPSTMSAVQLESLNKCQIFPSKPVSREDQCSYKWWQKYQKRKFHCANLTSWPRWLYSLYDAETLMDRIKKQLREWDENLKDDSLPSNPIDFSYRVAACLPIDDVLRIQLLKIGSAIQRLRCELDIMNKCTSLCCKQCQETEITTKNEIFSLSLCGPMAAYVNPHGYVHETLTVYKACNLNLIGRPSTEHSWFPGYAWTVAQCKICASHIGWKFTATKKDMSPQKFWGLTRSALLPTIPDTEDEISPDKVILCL
T3 sequence (Q16531 whole entry partner): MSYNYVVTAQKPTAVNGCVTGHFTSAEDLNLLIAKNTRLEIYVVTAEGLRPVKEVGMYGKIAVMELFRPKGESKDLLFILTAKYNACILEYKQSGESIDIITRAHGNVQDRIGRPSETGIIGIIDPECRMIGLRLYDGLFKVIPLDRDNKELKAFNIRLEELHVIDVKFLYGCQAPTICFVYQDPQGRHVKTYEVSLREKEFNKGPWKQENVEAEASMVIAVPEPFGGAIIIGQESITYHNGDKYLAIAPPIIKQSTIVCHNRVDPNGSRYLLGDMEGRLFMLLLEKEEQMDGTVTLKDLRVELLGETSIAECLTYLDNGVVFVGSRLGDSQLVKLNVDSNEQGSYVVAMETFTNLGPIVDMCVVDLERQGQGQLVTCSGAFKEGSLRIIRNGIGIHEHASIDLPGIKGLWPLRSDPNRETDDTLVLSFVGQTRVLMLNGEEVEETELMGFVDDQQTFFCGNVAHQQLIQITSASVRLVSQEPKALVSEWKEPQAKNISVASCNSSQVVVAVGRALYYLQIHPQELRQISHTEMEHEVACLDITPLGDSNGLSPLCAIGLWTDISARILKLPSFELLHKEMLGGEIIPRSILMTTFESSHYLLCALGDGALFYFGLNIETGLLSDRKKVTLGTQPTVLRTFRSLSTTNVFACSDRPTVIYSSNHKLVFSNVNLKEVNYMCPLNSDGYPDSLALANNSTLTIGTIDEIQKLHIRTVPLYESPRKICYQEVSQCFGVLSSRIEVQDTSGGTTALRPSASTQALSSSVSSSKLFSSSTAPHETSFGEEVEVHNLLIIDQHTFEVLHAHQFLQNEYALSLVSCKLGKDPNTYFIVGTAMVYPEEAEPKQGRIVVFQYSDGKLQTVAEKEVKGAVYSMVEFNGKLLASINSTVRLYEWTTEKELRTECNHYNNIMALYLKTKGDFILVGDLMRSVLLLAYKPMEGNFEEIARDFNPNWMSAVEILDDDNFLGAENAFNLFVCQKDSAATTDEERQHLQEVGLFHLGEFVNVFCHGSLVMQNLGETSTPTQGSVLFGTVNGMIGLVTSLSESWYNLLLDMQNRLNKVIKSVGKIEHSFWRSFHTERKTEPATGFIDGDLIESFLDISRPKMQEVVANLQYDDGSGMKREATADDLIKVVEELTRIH
T2 sequence (P15170 whole entry): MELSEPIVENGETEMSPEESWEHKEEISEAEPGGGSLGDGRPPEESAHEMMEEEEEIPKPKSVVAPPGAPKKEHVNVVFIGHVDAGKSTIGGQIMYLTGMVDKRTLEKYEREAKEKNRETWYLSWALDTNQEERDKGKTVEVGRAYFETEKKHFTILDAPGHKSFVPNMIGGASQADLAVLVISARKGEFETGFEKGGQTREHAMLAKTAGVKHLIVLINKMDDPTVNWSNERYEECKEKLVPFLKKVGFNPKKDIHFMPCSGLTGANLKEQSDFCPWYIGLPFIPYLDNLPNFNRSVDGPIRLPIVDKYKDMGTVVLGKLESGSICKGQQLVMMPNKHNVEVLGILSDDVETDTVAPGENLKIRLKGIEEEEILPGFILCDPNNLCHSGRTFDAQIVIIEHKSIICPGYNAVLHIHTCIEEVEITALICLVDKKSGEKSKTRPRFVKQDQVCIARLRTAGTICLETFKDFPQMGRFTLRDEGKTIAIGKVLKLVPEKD
T2 sequence (Q96SW2 whole entry): as the sequence (Q96SW2 whole entry) above
T2 sequence (Q16531 whole entry partner): as the sequence (Q16531 whole entry partner) above
T4 sequence (Q9UKT9 whole entry): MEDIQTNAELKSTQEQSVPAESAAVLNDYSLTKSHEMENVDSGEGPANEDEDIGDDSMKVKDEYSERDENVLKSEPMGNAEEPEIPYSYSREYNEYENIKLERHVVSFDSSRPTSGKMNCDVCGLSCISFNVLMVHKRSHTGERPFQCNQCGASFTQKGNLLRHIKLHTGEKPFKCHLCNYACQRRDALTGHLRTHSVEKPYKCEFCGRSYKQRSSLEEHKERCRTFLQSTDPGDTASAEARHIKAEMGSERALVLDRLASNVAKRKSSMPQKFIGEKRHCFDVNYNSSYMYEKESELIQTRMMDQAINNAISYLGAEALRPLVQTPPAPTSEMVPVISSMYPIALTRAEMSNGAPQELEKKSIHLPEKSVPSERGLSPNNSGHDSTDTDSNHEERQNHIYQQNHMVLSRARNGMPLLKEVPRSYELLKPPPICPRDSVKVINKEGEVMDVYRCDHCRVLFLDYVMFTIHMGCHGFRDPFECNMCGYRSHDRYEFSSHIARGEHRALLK
T4 sequence (Q96SW2 whole entry): as the sequence (Q96SW2 whole entry) above
T4 sequence (Q16531 whole entry partner): as the sequence (Q16531 whole entry partner) above
T1 sequence (Q13422 whole entry): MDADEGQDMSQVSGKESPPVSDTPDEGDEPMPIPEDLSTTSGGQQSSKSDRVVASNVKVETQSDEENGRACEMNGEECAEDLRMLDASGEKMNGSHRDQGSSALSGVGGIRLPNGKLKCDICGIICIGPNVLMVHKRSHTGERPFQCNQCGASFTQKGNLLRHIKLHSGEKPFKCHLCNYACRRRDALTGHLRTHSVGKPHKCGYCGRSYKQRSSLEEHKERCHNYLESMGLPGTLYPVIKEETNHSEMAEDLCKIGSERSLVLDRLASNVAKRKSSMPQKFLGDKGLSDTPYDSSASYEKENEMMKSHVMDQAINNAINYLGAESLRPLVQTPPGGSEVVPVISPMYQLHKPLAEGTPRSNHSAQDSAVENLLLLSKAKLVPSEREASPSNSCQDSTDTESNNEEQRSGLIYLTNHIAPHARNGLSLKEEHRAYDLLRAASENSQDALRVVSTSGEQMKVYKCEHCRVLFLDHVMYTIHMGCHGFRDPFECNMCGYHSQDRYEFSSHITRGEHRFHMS
T1 sequence (Q96SW2 whole entry): as the sequence (Q96SW2 whole entry) above
T1 sequence (Q16531 whole entry partner): as the sequence (Q16531 whole entry partner) above
T5 sequence (Q9UKS7 whole entry): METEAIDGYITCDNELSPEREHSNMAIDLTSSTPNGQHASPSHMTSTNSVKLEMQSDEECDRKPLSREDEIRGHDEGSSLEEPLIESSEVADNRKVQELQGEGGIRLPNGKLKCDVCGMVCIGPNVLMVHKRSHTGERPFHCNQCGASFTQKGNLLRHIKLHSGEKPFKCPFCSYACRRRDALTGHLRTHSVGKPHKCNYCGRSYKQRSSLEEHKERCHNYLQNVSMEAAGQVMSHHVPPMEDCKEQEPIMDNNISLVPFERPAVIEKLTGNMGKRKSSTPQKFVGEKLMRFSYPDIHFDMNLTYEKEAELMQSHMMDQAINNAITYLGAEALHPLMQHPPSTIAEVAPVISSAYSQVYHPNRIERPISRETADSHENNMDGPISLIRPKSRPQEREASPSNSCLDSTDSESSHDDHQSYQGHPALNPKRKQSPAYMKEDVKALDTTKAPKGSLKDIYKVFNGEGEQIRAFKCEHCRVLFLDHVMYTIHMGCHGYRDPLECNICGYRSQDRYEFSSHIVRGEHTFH
T5 sequence (Q96SW2 whole entry): as the sequence (Q96SW2 whole entry) above
T5 sequence (Q16531 whole entry partner): as the sequence (Q16531 whole entry partner) above

Row | SMILES | IKZF1 substrate protein remaining % (IKZF1) | GSPT1 substrate protein remaining % (GSPT1) | CK1α substrate protein remaining % (CK1α) | IKZF3 substrate protein remaining % (IKZF3) | IKZF2 substrate protein remaining % (IKZF2) | WEE1 substrate protein remaining % (WEE1)
1 | O=C1CCN(N2Cc3cc(CN4CCN(c5ncc6ccsc6n5)CC4)ccc3C2=O)C(=O)N1 [GT-08081, 1-(1-oxo-5-((4-(thieno[2,3-d]pyrimidin-2-yl)piperazin-1-yl)methyl)isoindolin-2-yl)dihydropyrimidine-2,4(1H,3H)-dione] | B (80%< substrate protein remaining % ≤100%) | A (0% ≤ substrate protein remaining % ≤80%) | A (0% ≤ substrate protein remaining % ≤80%) | B (80%< substrate protein remaining % ≤100%) | B (80%< substrate protein remaining % ≤100%) | A (0% ≤ substrate protein remaining % ≤80%)
2 | O=C1CCN(N2Cc3cc(CN4CCC(c5ncnc6sccc56)CC4)ccc3C2=O)C(=O)N1 [GT-08082, 1-(1-oxo-5-((4-(thieno[2,3-d]pyrimidin-4-yl)piperidin-1-yl)methyl)isoindolin-2-yl)dihydropyrimidine-2,4(1H,3H)-dione] | B (80%< substrate protein remaining % ≤100%) | A (0% ≤ substrate protein remaining % ≤80%) | A (0% ≤ substrate protein remaining % ≤80%) | B (80%< substrate protein remaining % ≤100%) | B (80%< substrate protein remaining % ≤100%) | A (0% ≤ substrate protein remaining % ≤80%)
3 | Cc1cc2c(C3CCN(Cc4ccc5c(c4)CN(N4CCC(=O)NC4=O)C5=O)CC3)ncnc2s1 [GT-08083, 1-(5-((4-(6-methylthieno[2,3-d]pyrimidin-4-yl)piperidin-1-yl)methyl)-1-oxoisoindolin-2-yl)dihydropyrimidine-2,4(1H,3H)-dione] | B (80%< substrate protein remaining % ≤100%) | A (0% ≤ substrate protein remaining % ≤80%) | A (0% ≤ substrate protein remaining % ≤80%) | B (80%< substrate protein remaining % ≤100%) | B (80%< substrate protein remaining % ≤100%) | B (80%< substrate protein remaining % ≤100%)
4 | Cc1sc2ncnc(C3CCN(Cc4ccc5c(c4)CN(N4CCC(=O)NC4=O)C5=O)CC3)c2c1C [GT-08084, 1-(5-((4-(5,6-dimethylthieno[2,3-d]pyrimidin-4-yl)piperidin-1-yl)methyl)-1-oxoisoindolin-2-yl)dihydropyrimidine-2,4(1H,3H)-dione] | B (80%< substrate protein remaining % ≤100%) | A (0% ≤ substrate protein remaining % ≤80%) | A (0% ≤ substrate protein remaining % ≤80%) | B (80%< substrate protein remaining % ≤100%) | B (80%< substrate protein remaining % ≤100%) | B (80%< substrate protein remaining % ≤100%)
5 | O=C1CCN(N2Cc3cc(CN4CCC(c5ncnc6sc(-c7ccccc7)cc56)CC4)ccc3C2=O)C(=O)N1 [GT-08085, 1-(1-oxo-5-((4-(6-phenylthieno[2,3-d]pyrimidin-4-yl)piperidin-1-yl)methyl)isoindolin-2-yl)dihydropyrimidine-2,4(1H,3H)-dione] | B (80%< substrate protein remaining % ≤100%) | A (0% ≤ substrate protein remaining % ≤80%) | A (0% ≤ substrate protein remaining % ≤80%) | B (80%< substrate protein remaining % ≤100%) | B (80%< substrate protein remaining % ≤100%) | B (80%< substrate protein remaining % ≤100%)
6 | Cc1nc(C2CCN(Cc3ccc4c(c3)CN(N3CCC(=O)NC3=O)C4=O)CC2)c2ccsc2n1 [GT-08088, 1-(5-((4-(2-methylthieno[2,3-d]pyrimidin-4-yl)piperidin-1-yl)methyl)-1-oxoisoindolin-2-yl)dihydropyrimidine-2,4(1H,3H)-dione] | B (80%< substrate protein remaining % ≤100%) | A (0% ≤ substrate protein remaining % ≤80%) | A (0% ≤ substrate protein remaining % ≤80%) | B (80%< substrate protein remaining % ≤100%) | B (80%< substrate protein remaining % ≤100%) | A (0% ≤ substrate protein remaining % ≤80%)
7 | Cc1nc(C2CCN(Cc3ccc4c(c3)CN(N3CCC(=O)NC3=O)C4=O)CC2)c2c3c(sc2n1)CCCC3 [GT-08089, 1-(5-((4-(2-methyl-5,6,7,8-tetrahydrobenzo[4,5]thieno[2,3-d]pyrimidin-4-yl)piperidin-1-yl)methyl)-1-oxoisoindolin-2-yl)dihydropyrimidine-2,4(1H,3H)-dione] | B (80%< substrate protein remaining % ≤100%) | A (0% ≤ substrate protein remaining % ≤80%) | A (0% ≤ substrate protein remaining % ≤80%) | B (80%< substrate protein remaining % ≤100%) | B (80%< substrate protein remaining % ≤100%) | A (0% ≤ substrate protein remaining % ≤80%)
8 | O=C1CCN(N2C(=O)c3ccc(CN4CCN(c5ncnc6sccc56)CC4)cc3C2=O)C(=O)N1 [GT-08090, 2-(2,4-dioxotetrahydropyrimidin-1(2H)-yl)-5-((4-(thieno[2,3-d]pyrimidin-4-yl)piperazin-1-yl)methyl)isoindoline-1,3-dione] | B (80%< substrate protein remaining % ≤100%) | A (0% ≤ substrate protein remaining % ≤80%) | A (0% ≤ substrate protein remaining % ≤80%) | B (80%< substrate protein remaining % ≤100%) | B (80%< substrate protein remaining % ≤100%) | A (0% ≤ substrate protein remaining % ≤80%)
9 | Cc1csc2ncnc(N3CCN(Cc4ccc5c(c4)C(=O)N(N4CCC(=O)NC4=O)C5=O)CC3)c12 [GT-08091, 2-(2,4-dioxotetrahydropyrimidin-1(2H)-yl)-5-((4-(5-methylthieno[2,3-d]pyrimidin-4-yl)piperazin-1-yl)methyl)isoindoline-1,3-dione] | B (80%< substrate protein remaining % ≤100%) | A (0% ≤ substrate protein remaining % ≤80%) | A (0% ≤ substrate protein remaining % ≤80%) | B (80%< substrate protein remaining % ≤100%) | B (80%< substrate protein remaining % ≤100%) | A (0% ≤ substrate protein remaining % ≤80%)
10 | Cc1cc2c(N3CCN(Cc4ccc5c(c4)C(=O)N(N4CCC(=O)NC4=O)C5=O)CC3)ncnc2s1 [GT-08092, 2-(2,4-dioxotetrahydropyrimidin-1(2H)-yl)-5-((4-(6-methylthieno[2,3-d]pyrimidin-4-yl)piperazin-1-yl)methyl)isoindoline-1,3-dione] | B (80%< substrate protein remaining % ≤100%) | A (0% ≤ substrate protein remaining % ≤80%) | A (0% ≤ substrate protein remaining % ≤80%) | B (80%< substrate protein remaining % ≤100%) | B (80%< substrate protein remaining % ≤100%) | A (0% ≤ substrate protein remaining % ≤80%)
11 | CC(C)c1cc2c(N3CCN(Cc4ccc5c(c4)C(=O)N(N4CCC(=O)NC4=O)C5=O)CC3)ncnc2s1 [GT-08093, 2-(2,4-dioxotetrahydropyrimidin-1(2H)-yl)-5-((4-(6-isopropylthieno[2,3-d]pyrimidin-4-yl)piperazin-1-yl)methyl)isoindoline-1,3-dione] | B (80%< substrate protein remaining % ≤100%) | A (0% ≤ substrate protein remaining % ≤80%) | A (0% ≤ substrate protein remaining % ≤80%) | B (80%< substrate protein remaining % ≤100%) | B (80%< substrate protein remaining % ≤100%) | A (0% ≤ substrate protein remaining % ≤80%)
12 | Cc1sc2ncnc(N3CCN(Cc4ccc5c(c4)C(=O)N(N4CCC(=O)NC4=O)C5=O)CC3)c2c1C [GT-08094, 5-((4-(5,6-dimethylthieno[2,3-d]pyrimidin-4-yl)piperazin-1-yl)methyl)-2-(2,4-dioxotetrahydropyrimidin-1(2H)-yl)isoindoline-1,3-dione] | B (80%< substrate protein remaining % ≤100%) | A (0% ≤ substrate protein remaining % ≤80%) | A (0% ≤ substrate protein remaining % ≤80%) | B (80%< substrate protein remaining % ≤100%) | B (80%< substrate protein remaining % ≤100%) | A (0% ≤ substrate protein remaining % ≤80%)
